Data on ten compounds can be found in ChEMBL document CHEMBL1221293, “New effective inhibitors of the Abelson kinase” (Bioorg Med Chem, 2010).

The Ki is a dissociation constant, usually derived from enzyme kinetics or from competition with a known ligand. Read a low Ki as higher affinity.

Each structure is given as a SMILES string.

The target of this test is Tyrosine-protein kinase ABL1 (Homo sapiens, UniProt P00519).
Tyrosine-protein kinase ABL1, sequence (P00519 whole entry): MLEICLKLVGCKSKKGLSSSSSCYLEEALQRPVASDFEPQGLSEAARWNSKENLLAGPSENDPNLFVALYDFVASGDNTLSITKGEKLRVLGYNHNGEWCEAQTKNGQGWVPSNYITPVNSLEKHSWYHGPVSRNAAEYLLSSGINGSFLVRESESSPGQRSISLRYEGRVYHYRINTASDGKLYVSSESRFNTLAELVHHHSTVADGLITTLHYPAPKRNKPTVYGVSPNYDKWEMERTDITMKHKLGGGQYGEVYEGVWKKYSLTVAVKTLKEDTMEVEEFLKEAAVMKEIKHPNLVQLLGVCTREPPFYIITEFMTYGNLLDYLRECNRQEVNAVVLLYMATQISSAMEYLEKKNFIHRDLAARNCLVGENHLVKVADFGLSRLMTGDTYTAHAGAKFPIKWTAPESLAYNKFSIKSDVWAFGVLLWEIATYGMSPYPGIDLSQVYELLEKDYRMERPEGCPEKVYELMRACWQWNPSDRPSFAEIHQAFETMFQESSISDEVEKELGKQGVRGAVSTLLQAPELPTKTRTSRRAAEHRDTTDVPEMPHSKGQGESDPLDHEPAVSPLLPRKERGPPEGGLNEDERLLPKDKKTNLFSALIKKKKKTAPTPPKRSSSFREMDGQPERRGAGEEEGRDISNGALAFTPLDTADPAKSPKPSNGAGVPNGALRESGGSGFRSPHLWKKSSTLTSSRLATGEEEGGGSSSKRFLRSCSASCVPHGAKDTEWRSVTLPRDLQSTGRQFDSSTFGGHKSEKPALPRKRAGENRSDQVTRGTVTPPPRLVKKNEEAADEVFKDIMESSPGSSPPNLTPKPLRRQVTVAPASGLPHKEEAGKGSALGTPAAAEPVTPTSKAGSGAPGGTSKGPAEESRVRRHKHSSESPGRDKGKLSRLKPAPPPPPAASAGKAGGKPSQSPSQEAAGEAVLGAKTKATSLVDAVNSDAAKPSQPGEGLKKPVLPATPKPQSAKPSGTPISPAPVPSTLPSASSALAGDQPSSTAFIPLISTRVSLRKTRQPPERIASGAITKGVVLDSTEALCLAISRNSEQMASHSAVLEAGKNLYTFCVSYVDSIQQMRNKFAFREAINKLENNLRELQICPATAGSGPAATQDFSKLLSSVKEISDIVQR

Description: Inhibition of recombinant c-Abl after 30 mins

Take `Cn1c(=O)c(-c2c(Cl)cccc2Cl)cc2cnc(Nc3cccc(NC(=O)CN)c3)nc21`: the affinity corresponds to a Ki of 0.02 nM.
The compound `Cn1c(=O)c(-c2c(Cl)cccc2Cl)cc2cnc(NCc3cccc(N)c3)nc21` showed a Ki of 8 nM.
Take `Cn1c(=O)c(-c2ccccc2Cl)cc2cnc(NCc3cccc(N)c3)nc21`: the Ki worked out at 60 nM. Against the preceding compound, the Ki is about 7.5-fold higher.
The compound `Cn1c(=O)c(-c2ccccc2)cc2cnc(NCc3cccc(N)c3)nc21` came in with a Ki of 2000 nM.
On to `Cn1c(=O)c(-c2c(F)cccc2F)cc2cnc(NCc3cccc(N)c3)nc21`, for which the affinity corresponds to a Ki of 40 nM.
Consider `Cn1c(=O)c(-c2ccccc2Br)cc2cnc(NCc3cccc(N)c3)nc21`, for which the affinity corresponds to a Ki of 40 nM.
Next, `CSc1cccc(CNc2ncc3cc(-c4c(Cl)cccc4Cl)c(=O)n(C)c3n2)c1`: 70 nM; `CCCCCCNc1cccc(CNc2ncc3cc(-c4c(Cl)cccc4Cl)c(=O)n(C)c3n2)c1`: 900 nM; `Cn1c(=O)c(-c2c(Cl)cccc2Cl)cc2cnc(NCc3cccc(NC(=O)CN)c3)nc21`: 20 nM.
In turn, `Cn1c(=O)c(-c2c(Cl)cccc2Cl)cc2cnc(NCc3cccc(C(=O)CCCC[C@@H]4SC[C@@H]5NC(=O)N[C@@H]54)c3)nc21` showed a Ki of 20 nM. This lies in the double-digit nanomolar range.
